Data: BindingDB's records for doi:10.1021/jm00055a002 (Eli Lilly, 1993)
Where a SMILES comes first, the peptide text is derived from it. [ ]: non-standard residue; d: D form. The star is where a group is joined. dHpg = N[C@@H](C(=O)O)c1ccc(O)cc1; Boc = CC(C)(C)OC(=O)*

Target: Tissue-type plasminogen activator (Homo sapiens) (UniProt P00750)
Test: Compound was tested in vitro for inhibitory activity against t-PA (tissue plasminogen activator)

Tissue-type plasminogen activator (Homo sapiens), sequence (P00750 whole entry, looked up): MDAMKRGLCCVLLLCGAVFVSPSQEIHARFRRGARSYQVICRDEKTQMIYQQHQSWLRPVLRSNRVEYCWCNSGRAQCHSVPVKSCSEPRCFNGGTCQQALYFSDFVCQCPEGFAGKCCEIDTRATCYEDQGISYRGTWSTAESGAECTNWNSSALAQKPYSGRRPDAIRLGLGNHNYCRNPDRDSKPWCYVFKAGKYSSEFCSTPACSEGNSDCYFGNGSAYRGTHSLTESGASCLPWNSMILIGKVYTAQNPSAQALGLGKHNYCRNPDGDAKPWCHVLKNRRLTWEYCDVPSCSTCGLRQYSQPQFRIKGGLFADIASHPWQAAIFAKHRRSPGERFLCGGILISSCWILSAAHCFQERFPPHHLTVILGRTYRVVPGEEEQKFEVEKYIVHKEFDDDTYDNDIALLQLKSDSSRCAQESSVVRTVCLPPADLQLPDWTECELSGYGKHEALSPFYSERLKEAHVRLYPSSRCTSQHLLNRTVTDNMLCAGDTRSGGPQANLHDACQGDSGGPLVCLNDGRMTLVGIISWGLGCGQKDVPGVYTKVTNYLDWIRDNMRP

Compound | IC50 [µM]
CO[C@H](C(=O)N1CCC[C@H]1C(=O)NC(C=O)CCCNC(=N)N)c1ccccc1 (stereo not given in full) [1-(2-Methoxy-2-phenyl-acetyl)-pyrrolidine-2-carboxylic acid (1-formyl-4-guanidino-butyl)-amide] | 860
CC(C)(C)OC(=O)N[C@@H](C(=O)N1CCC[C@H]1C(=O)N[C@H](C=O)CCCN=C(N)N)c1ccc(F)cc1 [{1-(4-Fluoro-phenyl)-2-[2-(1-formyl-4-guanidino-butylcarbamoyl)-pyrrolidin-1-yl]-2-oxo-ethyl}-carbamic acid tert-butyl ester] | 18
CC(C)(C)OC(=O)N[C@H](C(=O)N1CCC[C@H]1C(=O)N[C@H](C=O)CCCN=C(N)N)c1ccc(F)cc1 [{1-(4-Fluoro-phenyl)-2-[2-(1-formyl-4-guanidino-butylcarbamoyl)-pyrrolidin-1-yl]-2-oxo-ethyl}-carbamic acid tert-butyl ester] | 91

The next lines start with the values.

IC50 [µM] | Compound
42 | CN[C@@H](C(=O)N1CCC[C@H]1C(=O)N[C@H](C=O)CCCNC(=N)N)c1ccccc1 [(S)-1-((R)-2-Methylamino-2-phenyl-acetyl)-pyrrolidine-2-carboxylic acid ((S)-1-formyl-4-guanidino-butyl)-amide]
15 | CC(C)(C)OC(=O)NC(C(=O)N1CCC[C@H]1C(=O)NC(C=O)CCCNC(=N)N)c1cccc(C(F)(F)F)c1 (stereo not given in full) [[2-[2-(1-Formyl-4-guanidino-butylcarbamoyl)-pyrrolidin-1-yl]-2-oxo-1-(3-trifluoromethyl-phenyl)-ethyl]-carbamic acid tert-butyl ester]
31 | CC(C)(C)OC(=O)NC(C(=O)N1CCC[C@H]1C(=O)NC(C=O)CCCNC(=N)N)c1ccc(Cl)c(Cl)c1 (stereo not given in full) [{1-(3,4-Dichloro-phenyl)-2-[2-(1-formyl-4-guanidino-butylcarbamoyl)-pyrrolidin-1-yl]-2-oxo-ethyl}-carbamic acid tert-butyl ester]
20 | CC(C)(C)OC(=O)N[C@@H](C(=O)N1CCC[C@H]1C(=O)NC(C=O)CCCNC(=N)N)c1cccc2ccccc12 (stereo not given in full) [{2-[2-(1-Formyl-4-guanidino-butylcarbamoyl)-pyrrolidin-1-yl]-1-naphthalen-1-yl-2-oxo-ethyl}-carbamic acid tert-butyl ester]
12 | CC(C)(C)OC(=O)N[C@@H](C(=O)N1CCC[C@H]1C(=O)NC(C=O)CCCNC(=N)N)c1ccc2ccccc2c1 (stereo not given in full) [{2-[2-(1-Formyl-4-guanidino-butylcarbamoyl)-pyrrolidin-1-yl]-1-naphthalen-2-yl-2-oxo-ethyl}-carbamic acid tert-butyl ester]

Target: Tissue-type plasminogen activator (Homo sapiens) (UniProt P00750)
Test: Inhibitory activity against tissue-type plasminogen activator

Compound | IC50 [µM]
N=C(N)NCCC[C@@H](C=O)NC(=O)[C@@H]1CCCN1C(=O)C1CCc2ccccc2N1 (stereo not given in full) [1-(1,2,3,4-Tetrahydro-quinoline-2-carbonyl)-pyrrolidine-2-carboxylic acid (1-formyl-4-guanidino-butyl)-amide] | 660
CC(C)(C)OC(=O)N[C@@H](C(=O)N1CCC[C@H]1C(=O)N[C@H](C=O)CCCN=C(N)N)c1ccc(O)cc1 [[2-[2-(1-Formyl-4-guanidino-butylcarbamoyl)-pyrrolidin-1-yl]-1-(4-hydroxy-phenyl)-2-oxo-ethyl]-carbamic acid tert-butyl ester] (Boc-[dHpg]-Pro-Arg-aldehyde) | 16
